Measured values: US8916604B2, “Compositions and methods for epigenetic modification of nucleic acid sequences” (Rutgers, The State University of New Jersey, priority 2011, dated 2014)
Read-outs that look alike come from different tables or passages of the source. Values belong to the compound of their own block, whether it stands above or below them.

What was measured:
HepG2-C8 cells = test: MTS cell viability assay; format: cell-based, human
Experimental: The stably transfected single clone HepG2-ARE-C8 (HepG2-C8) cell line has been established previously in our laboratory using the […]-luciferase reporter gene. The cells were maintained in Dulbecco's modified Eagle medium supplemented with 10% fetal bovine serum (FBS), 1.17 g/l sodium bicarbonate, and 100 unit/ml penicillin, 100 μg/ml streptomycin at 37° C. in a humidified incubator with 5% CO2. […] MTS] (Promega, Madison, Wis.). […] The cells were then treated with MTS for 1 h at 37° C. Absorbance of the formazan product was read at 490 nm with a μQuant Biomolecular Spectrophotometer from Bio-Tek Instruments Inc. (Winooski, Vt.). Independent control studies were conducted using 1% and 10% FBS medium.

[1] = test system: antioxidant response element (ARE); test: ARE-luciferase reporter assay with combination index calculation; format: cell-based, human
Experimental: The stably transfected single clone HepG2-ARE-C8 (HepG2-C8) cell line has been established previously in our laboratory using the […]-luciferase reporter gene. The cells were maintained in Dulbecco's modified Eagle medium supplemented with 10% fetal bovine serum (FBS), 1.17 g/l sodium bicarbonate, and 100 unit/ml penicillin, 100 μg/ml streptomycin at 37° C. in a humidified incubator with 5% CO2. The HepG2-C8 cells were cultured in 12-well plates and each well contained 1 million cells in 1 ml of 10% FRS medium. The cells were treated with compounds for 24 h. The luciferase activity was determined using a luciferase kit from Promega (Madison, USA) according to the manufacturer's instructions. Briefly, after treatments for 24 h, the cells were washed twice with ice-cold phosphate buffered-saline (PBS, pH 7.4) and harvested in 1× reporter lysis buffer and […]. After centrifugation at 4° C., 12000 rpm for 5 min, a 10 μl aliquot of the supernatant was assayed for luciferase activity with a Sirius luminometer (Berthold Detection System GmbH, Pforzheim, Germany). The luciferase activity was normalized against protein concentration, determined by a BCA protein assay (Pierce, Rockford, USA), and expressed as the fold induction over the luciferase activity of control vehicle-treated cells. At least two to three independent studies were conducted in triplicates. To determine the synergistic effect between the combination of two different compounds, the combination index (CI) was calculated with the following formula: […] This approach is based on the Loewe additivity model and although the exact mechanism of interaction may be unknown, this model is one of the most commonly used reference models for evaluating potential drug-drug interactions Lee et al., J Biopharm Stat 2007; 17: 461-480).

HO-1 = test: qPCR mRNA expression in HepG2-C8 cells; format: cell-based, human; details: 25 μM, 6 h, vs 0.1% DMSO
Experimental: (§1) The cells were treated similarly to the NITS and ARE-luciferase assays described above using 10% FBS medium. The incubation of the compounds with the cells was terminated 6 h later. The mRNA expression was evaluated utilizing a quantitative real-time polymerase chain reaction (qPCR). An RNeasy kit from Qiagen was used for RNA extraction (Valencia, Calif.). The total RNA was reverse-transcribed to cDNA by TaqMan Reverse Transcription Reagents (Applied Biosystems Inc, Foster City, Calif.). SYBR Green (Applied Biosystems Inc, Foster City, Calif.) fluorescence was used to measure the product of qPCR. Glyceraldehyde 3-phosphate dehydrogenase (GAPDH) was used as the housekeeping gene, and the Applied Biosystems 7900HT Fast Real-Time PCR System (Applied Biosystems Inc, Foster City, Calif.) was used as described previously (Saw et al., Biochem Pharmacol 2010; 79: 421-430) to detect quantitatively the induction of mRNA of Nrf2, phase II DME GSTm2, NAD (P)H dehydrogenase, quinone 1 (NQO1), UGT family, polypeptide A1 (UGT1A1) and antioxidant enzymes HO-1, superoxide dismutase 1 (SOD1). The primer pairs were designed using the Primer Quest Oligo Design and Analysis Tool by Integrated DNA Technologies Inc. (Coralville, Iowa, USA) and the sequences are listed in Table 4. At least four wells of each treatment were performed and duplicate samples were carried out for each treatment.

Nrf2 = test: qPCR mRNA expression in HepG2-C8 cells; format: cell-based, human; details: 25 μM, 6 h, vs 0.1% DMSO
Experimental: as §1

[2] = oral; cited from earlier work
NQO1 = test: qPCR mRNA expression in HepG2-C8 cells; format: cell-based, human; details: 6 h
Experimental: as §1

[3] = test system: first 5 CpGs in the promoter region of Nrf2 gene; details: TRAMP C1 cells, other DNA de-methylating agents; cited from earlier work
[4] = Homo sapiens, HepG2C8, 1% FBS medium, read-out: cell viability inhibitory concentrations (IC50)

IC50 (HepG2-C8 cells; 1% FBS medium, read-out: cell viability inhibitory concentrations (IC50)): 135 µM
IC50 (HepG2-C8 cells; 10% FBS medium (data not shown), read-out: cell viability IC50): 300 µM
SMILES: OCc1c[nH]c2ccccc12 [I3C, indole-3-carbinol]
induction of ARE-luciferase ([1]; doses lower than 25 μM, 10% FBS medium (data not shown)): no significant induction
HO-1 mRNA induction over control (HO-1): did not show significant induction
Nrf2 mRNA induction over control (Nrf2): did not show significant induction
tolerability [2]: well tolerated

SMILES: S=C=NCCc1ccccc1 [PEITC, phenethyl isothiocyanate]
IC50 (HepG2-C8 cells; [4]): ~20 µM
NQO1 gene expression (NQO1; 1 μM): greatly induced

IC50 (HepG2-C8 cells; [4]): ~20 µM
SMILES: C[S+]([O-])CCCCN=C=S (stereo not drawn) [SFN, sulforaphane]
time of peak induction of ARE-luciferase activity ([1]; time course study, after treatment): 18 h
NQO1 gene expression (NQO1; any concentration): not significantly induced

SMILES: COc1cc(/C=C/C(=O)CC(=O)/C=C/c2ccc(O)c(OC)c2)ccc1O [curcumin]
CpG methylation of the first 5 CpGs of the promoter of Nrf2 gene [3]: decreased CpG methylation
